Square brackets hold non-standard residues; d marks the D form. Peptide text beside a SMILES is read from it. * marks the point of attachment. Orn = NCCC[C@H](N)C(=O)O; Hexanoyl = CCCCCC(=O)*; Aib = CC(C)(N)C(=O)O
T1: rat VPAC2 receptor (Rattus norvegicus, UniProt P35000)
T1 construct: expressed in transfected cells; host or cells: CHO-PO (transient, Lipofectamine)
T1 sequence (P35000 23-437): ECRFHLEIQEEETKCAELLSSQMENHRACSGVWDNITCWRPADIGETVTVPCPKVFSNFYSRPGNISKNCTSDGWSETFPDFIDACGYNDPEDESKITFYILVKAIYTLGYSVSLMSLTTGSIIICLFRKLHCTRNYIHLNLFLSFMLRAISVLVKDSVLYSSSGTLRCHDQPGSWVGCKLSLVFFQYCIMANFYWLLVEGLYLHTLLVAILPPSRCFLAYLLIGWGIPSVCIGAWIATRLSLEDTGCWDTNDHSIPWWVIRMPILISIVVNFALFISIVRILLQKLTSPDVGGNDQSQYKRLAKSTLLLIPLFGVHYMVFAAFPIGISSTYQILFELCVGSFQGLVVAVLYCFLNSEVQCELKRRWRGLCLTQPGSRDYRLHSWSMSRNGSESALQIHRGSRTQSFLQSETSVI

T2: rat VPAC1 receptor (Rattus norvegicus, UniProt P30083)
T2 construct: expressed in transfected cells; host or cells: CHO-PO (transient, Lipofectamine)
T2 sequence (P30083 31-459): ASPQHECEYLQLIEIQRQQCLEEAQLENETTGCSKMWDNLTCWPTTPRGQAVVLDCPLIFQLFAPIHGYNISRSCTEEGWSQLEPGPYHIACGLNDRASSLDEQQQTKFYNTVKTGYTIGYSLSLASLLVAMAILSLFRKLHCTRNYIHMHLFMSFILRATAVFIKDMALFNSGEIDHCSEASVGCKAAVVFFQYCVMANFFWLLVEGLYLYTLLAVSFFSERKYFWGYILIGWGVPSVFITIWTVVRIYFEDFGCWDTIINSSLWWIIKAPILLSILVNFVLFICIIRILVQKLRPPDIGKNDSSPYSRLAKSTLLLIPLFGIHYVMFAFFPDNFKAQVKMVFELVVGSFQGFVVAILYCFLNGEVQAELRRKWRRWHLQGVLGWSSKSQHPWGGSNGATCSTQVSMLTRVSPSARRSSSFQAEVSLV

T3: human VPAC2 (Homo sapiens, UniProt P41587)
T3 construct: expressed in transfected cells
T3 sequence (P41587 24-438): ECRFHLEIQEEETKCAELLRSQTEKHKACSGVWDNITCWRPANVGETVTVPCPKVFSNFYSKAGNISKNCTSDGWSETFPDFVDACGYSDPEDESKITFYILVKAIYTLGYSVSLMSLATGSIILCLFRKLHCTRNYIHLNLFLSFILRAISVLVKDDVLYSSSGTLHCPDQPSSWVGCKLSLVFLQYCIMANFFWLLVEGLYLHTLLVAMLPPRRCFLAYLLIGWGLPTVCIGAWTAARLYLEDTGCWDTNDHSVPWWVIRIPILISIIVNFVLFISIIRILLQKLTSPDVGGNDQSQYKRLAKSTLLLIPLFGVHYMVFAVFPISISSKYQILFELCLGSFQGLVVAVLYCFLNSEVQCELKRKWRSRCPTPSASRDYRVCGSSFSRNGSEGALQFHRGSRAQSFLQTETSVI

T4: human PAC1 (Homo sapiens, UniProt P41586)
T4 construct: expressed in transfected cells
T4 sequence (P41586 21-468): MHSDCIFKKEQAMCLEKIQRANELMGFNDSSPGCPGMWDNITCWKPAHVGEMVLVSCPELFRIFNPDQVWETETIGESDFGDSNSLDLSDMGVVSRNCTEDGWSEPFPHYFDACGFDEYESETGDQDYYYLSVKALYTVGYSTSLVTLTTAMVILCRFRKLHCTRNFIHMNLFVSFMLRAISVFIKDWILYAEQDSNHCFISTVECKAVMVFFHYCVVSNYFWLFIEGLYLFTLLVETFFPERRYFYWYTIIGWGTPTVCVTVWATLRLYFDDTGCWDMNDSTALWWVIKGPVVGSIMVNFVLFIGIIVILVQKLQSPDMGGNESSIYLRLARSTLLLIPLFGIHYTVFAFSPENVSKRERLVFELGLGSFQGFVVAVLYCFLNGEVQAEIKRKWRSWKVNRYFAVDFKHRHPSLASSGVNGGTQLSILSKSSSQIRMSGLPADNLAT

T5: human VPAC2 receptor (human, UniProt P41587 24-438)
T5 sequence (looked up): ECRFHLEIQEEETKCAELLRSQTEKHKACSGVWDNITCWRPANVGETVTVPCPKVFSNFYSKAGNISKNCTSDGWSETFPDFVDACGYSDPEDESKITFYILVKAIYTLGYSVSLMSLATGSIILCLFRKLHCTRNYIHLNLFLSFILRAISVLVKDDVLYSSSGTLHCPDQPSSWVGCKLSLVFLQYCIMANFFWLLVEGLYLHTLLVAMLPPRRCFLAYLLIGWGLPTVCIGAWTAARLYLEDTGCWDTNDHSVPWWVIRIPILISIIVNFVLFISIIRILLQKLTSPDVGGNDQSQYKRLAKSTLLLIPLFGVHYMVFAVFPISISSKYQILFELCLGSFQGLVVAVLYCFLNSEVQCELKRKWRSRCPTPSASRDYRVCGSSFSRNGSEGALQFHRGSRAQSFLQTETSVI

T6: human VPAC1 receptor (human, UniProt P32241 31-457)
T6 sequence (looked up): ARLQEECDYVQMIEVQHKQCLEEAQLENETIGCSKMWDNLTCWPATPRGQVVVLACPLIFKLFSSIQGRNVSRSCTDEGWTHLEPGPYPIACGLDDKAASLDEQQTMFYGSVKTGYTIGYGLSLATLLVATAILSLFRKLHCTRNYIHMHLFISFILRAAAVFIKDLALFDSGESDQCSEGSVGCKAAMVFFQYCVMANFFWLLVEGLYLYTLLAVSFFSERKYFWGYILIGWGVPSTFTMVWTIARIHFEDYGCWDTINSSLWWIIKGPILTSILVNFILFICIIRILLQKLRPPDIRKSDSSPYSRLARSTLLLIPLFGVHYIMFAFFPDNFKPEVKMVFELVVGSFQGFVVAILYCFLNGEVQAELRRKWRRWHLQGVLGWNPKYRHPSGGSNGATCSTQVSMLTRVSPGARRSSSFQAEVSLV


Tests used:
[1] = target: T1, rat VPAC2 receptor; assay: DiscoveRx cAMP assay, in vitro potency at rat VPAC2 receptor; assay type: cell-based; settings: CHO-PO cells transiently transfected with rat VPAC2; cAMP generation; mean of two independent runs
[2] = target: T2, rat VPAC1 receptor; assay: DiscoveRx cAMP assay, in vitro potency at rat VPAC1 receptor; assay type: cell-based; settings: CHO-PO cells transiently transfected with rat VPAC1; cAMP generation; mean of two independent runs
Description: DiscoveRx: CHO-PO cells are transiently transfected with rat VPAC1 or VPAC2 receptor DNA using commercially available transfection reagents (Lipofectamine from Invitrogen). The cells are seeded at a density of 10,000/well in a 96-well plate and are allowed to grow for 3 days in […] culture medium. At day 3, the assay is performed.
On the day of the experiment, the medium is removed. Also, the cells are washed twice. The cells are incubated in assay buffer plus IBMX for 15 minutes at room temperature. Afterwards, the stimuli are added and are dissolved in assay buffer. The stimuli are present for 30 minutes. Then, the assay buffer is gently removed. The cell lysis reagent of the DiscoveRx cAMP kit is added. Thereafter, the standard protocol for developing the cAMP signal as described by the manufacturer is used (DiscoveRx Inc., USA). EC50 values for cAMP generation are calculated from the raw signal or are based on absolute cAMP levels as determined by a standard curve performed on each plate.
Results for each agonist are the mean of two independent runs. Rat VPAC1 and VPAC2 results are only generated using the DiscoveRx assay.

[3] = target: T3, human VPAC2; assay: Alpha screen cAMP assay, in vitro potency at human VPAC2 receptor; assay type: cell-based; settings: cAMP generation; single result from two analyses in a single run, some values average of more than one experiment
[4] = target: T3, human VPAC2; assay: Filter binding assay, 125I-labeled VIP tracer, VPAC2 membranes; settings: read-out: Human VPAC2 Receptor Binding (IC50; nM)
[5] = target: T4, human PAC1; assay: Filter binding assay, 125I-labeled PACAP-27 tracer, PAC1 membranes; settings: read-out: Human PAC1 Receptor Binding (IC50; nM)
[6] = target: T5, human VPAC2 receptor; assay: cell-based or functional assay
[7] = target: T6, human VPAC1 receptor; assay: cell-based or functional assay

Row | Human VPAC2 Receptor: DiscoveRx (EC50; nM), cAMP generation [6] [nM] | Human VPAC1 Receptor: DiscoveRx (EC50; nM), cAMP generation [7] [nM] | Molecule | EC50 [1] [nM] | EC50 [2] [nM] | EC50 [3] [nM] | IC50 [4] [nM] | IC50 [5] [nM]
1 |  |  | CCCCCC(=O)N[C@@H](Cc1c[nH]cn1)C(=O)N[C@@H](CO)C(=O)N[C@@H](CC(=O)O)C(=O)N[C@@H](C)C(=O)N[C@H](C(=O)N[C@@H](Cc1ccccc1)C(=O)N[C@H](C(=O)N[C@@H](CC(=O)O)C(=O)N[C@@H](CCC(N)=O)C(=O)N[C@@H](Cc1ccc(O)cc1)C(=O)N[C@H](C(=O)N[C@@H](CCCN)C(=O)N[C@@H](CC(C)C)C(=O)N[C@@H](CCCNC(=N)N)C(=O)NC(C)(C)C(=O)N[C@@H](CCC(N)=O)C(=O)N[C@@H](CC(C)C)C(=O)N[C@@H](C)C(=O)N[C@@H](C)C(=O)NC(C)(C)C(=O)N[C@@H](CCCN)C(=O)N[C@@H](Cc1ccc(O)cc1)C(=O)N[C@@H](CC(C)C)C(=O)N[C@@H](CCC(N)=O)C(=O)N[C@@H](CO)C(=O)N[C@H](C(=O)N[C@@H](CCCN)C(=O)N[C@@H](CCCN)C(=O)NCC(=O)NCC(=O)N1CCC[C@H]1C(=O)N[C@@H](CO)C(=O)N[C@@H](CO)C(=O)NCC(=O)N[C@@H](C)C(=O)N1CCC[C@H]1C(=O)N1CCC[C@H]1C(=O)N1CCC[C@H]1C(=O)N[C@@H](CO)C(=O)O)[C@@H](C)CC)[C@@H](C)O)[C@@H](C)O)C(C)C [Agonist P395] (Hexanoyl-HSDAVFTDQYT[Orn]LR[Aib]QLAA[Aib][Orn]YLQSI[Orn][Orn]GGPSSGAPPPS-OH; C-terminus assumed) | 0.03 | 0.35 | 0.15 | 0.24 | > 25000
2 | 3.02 | 18.3 | HSDAVFTDNYTRLRKQVAAKKYLQSIKNKRQGGPSSGAPPPS [VPAC2 receptor peptide agonist P29] |  |  |  |  | 
